Measured values from patent US5087627A, “Agent for treatment of disorders of the cerebro-neural transmission system” (Santen Pharmaceutical Co., Ltd., priority 1989, dated 1992).
Where a name gives a salt, the structure may show the parent alone. Read-outs that look alike come from different tables or passages of the source.

Assays:
5-HT2 receptor = target: T1, 5-HT2 receptor (Oryctolagus cuniculus, UniProt G1SYA7); assay: antagonistic test against 5-HT2 using vessel (thoracic aorta) of rabbit, 5-HT-induced contraction; set-up: species or system tissue, rabbit (Japanese white)
T1 construct: The isolated arteries were helically cut into strips; from tissue; host or cells: thoracic aorta of Japanese white rabbit (helical strips)
T1 sequence (G1SYA7 1-469): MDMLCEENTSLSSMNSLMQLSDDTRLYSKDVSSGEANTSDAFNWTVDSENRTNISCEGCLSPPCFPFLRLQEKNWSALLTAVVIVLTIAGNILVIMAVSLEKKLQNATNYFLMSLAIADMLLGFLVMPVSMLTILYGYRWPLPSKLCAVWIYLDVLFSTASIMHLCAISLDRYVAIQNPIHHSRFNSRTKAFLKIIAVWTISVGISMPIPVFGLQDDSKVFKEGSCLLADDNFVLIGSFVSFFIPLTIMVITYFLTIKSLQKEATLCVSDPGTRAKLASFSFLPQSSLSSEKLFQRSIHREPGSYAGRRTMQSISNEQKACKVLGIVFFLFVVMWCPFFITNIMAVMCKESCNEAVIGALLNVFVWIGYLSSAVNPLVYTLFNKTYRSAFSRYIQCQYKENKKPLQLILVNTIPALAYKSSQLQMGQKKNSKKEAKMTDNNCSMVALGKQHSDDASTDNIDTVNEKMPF
Protocol: Therefore, in this test, the efficacy of the Compound was examined using thoracic aorta of rabbit.
Japanese white rabbits were sacrificed by cervical fracture and exsanguinated. Thoracic aortas were exciesd rapidly. The isolated arteries were helically cut into strips, approximately 3 mm wide, and suspended in 20 ml organ bath chambers containing Krebs-Henseleit solution. Resting tensions of aortas were maintained in 1.5 g. The organ bath chambers were maintained at 37° C. and aerated continuously with 95% O2 -5% CO2.
After equilibration, 5-HT (10^-6 M) was added into each organ bath chamber. After the 5-HT-induced contraction was ascertained to be constant and reproducible, each test compound were added and 30 minutes after 5-HT was added again, and their effect on 5-HT induced contraction was examined.
The contraction was measured with various concentrations of the test compound. According to the difference between the contraction caused by pre-treatment with the test compound and by 5-HT alone, the concentration which can inhibit 50% of the contraction caused by 5-HT alone was calculated (IC50).

[1] = system: PCA - induced amnesia (impairment of memory); assay: one-trial passive avoidance test in mice, PCA - induced amnesia model
[2] = system: CXM - induced amnesia (impairment of memory); set-up: species or system mice; conditions: mouse, in vivo
[3] = in words, prior art; cited from earlier work

For `COc1ccc(CCN2CCN(C(Cc3ccccc3)c3ccncc3)CC2)cc1OC` (racemic) [compound 8, (±)-1-[2-Phenyl-1-(4-pyridyl)ethyl]-4-[2-(3,4-dimethoxyphenyl)ethyl]piperazine dioxalate], the IC50 (5-HT2 receptor) was 7 µM.
For `c1ccc(CC(c2cccnc2)N2CCN(CCOc3ccc4c(c3)OCO4)CC2)cc1` (racemic) [compound 9, (±)-1-[(2-Phenyl)-1-(3-pyridyl)ethyl]-4-[2-(3,4-methylenedioxyphenoxy)ethyl]piperazine dioxalate], the IC50 (5-HT2 receptor) was 4.8 µM.
For `Fc1ccc(CC(c2ccc(F)cc2)N2CCN(CCOc3ccc4c(c3)OCO4)CC2)cc1` (racemic) [compound No. 10, (±)-1-[1,2-Bis(4-fluorophenyl)]ethyl-4-[2-[(3,4-methylenedioxy)phenoxy]ethyl]piperazine dihydrochloride], the IC50 (5-HT2 receptor; rabbit thoracic aorta strips, 5-HT 10^-6 M, 30 minutes pre-treatment, 37° C., read-out: IC50 (concentration which can inhibit 50% of the contraction caused by 5-HT alone)) was 2.1 µM and the “step-down latency (median)” value ([1]; PCA 5 mg/kg i.p., test compound 1.25 mg/kg p.o., 24 h after training, cut off 300 sec) was 206.3 s.
With `c1ccc(CC(c2ccccc2)N2CCN(CCOc3ccc4c(c3)OCO4)CC2)cc1` (racemic) [compound No. 7, (±)-1-(1,2-Diphenyl)ethyl-4-[2-(3,4-methylenedioxyphenoxy)ethyl]piperazine dihydrochloride] the “step-down latency (median)” value [2] was 123.9 s, the IC50 (5-HT2 receptor) was 2.7 µM and the “step-down latency (median)” value ([1]; mouse, in vivo) was 155.1 s.
For `CN(C)C(Cc1ccccc1)c1ccccc1` (single isomer, unassigned; (-)) [lefetamine, (-)-N,N-dimethyl-1,2-diphenylethylamine], the analgesic effect [3] is listed as “excellent analgesic effect”.
